This test deals with HCV replicon. Nature of the test: Cell-Based HCV Replicon Assay. As to conditions: Hepatitis C virus. The procedure: Cell-Based HCV Replicon Assay
To measure cell-based anti-HCV activity of the compounds of the present invention, replicon cells were seeded at 5000 cells/well in 96-well collagen I-coated Nunc plates in the presence of the compound of the invention. Various concentrations of a compound of the invention, typically in 10 serial 2-fold dilutions, were added to the assay mixture, the starting concentration of the compound ranging from 25 μM to 1 μM. The final concentration of DMSO was 0.5%, fetal bovine serum was 10%, in the assay media. Cells were harvested on day 3 by the addition of 1× cell lysis buffer (Ambion cat #8721). The replicon RNA level was measured using real time PCR (Taqman assay). The amplicon was located in 5B. The PCR primers were: 5B.2F, ATGGACAGGCGCCCTGA; 5B.2R, […]; the probe sequence was FAM-labeled CACGCCATGCGCTGCGG. GAPDH RNA was used as endogenous control and was amplified in the same reaction as NS5B (multiplex PCR) using primers and VIC-labeled probe recommended by the manufacturer (PE Applied Biosystem). The real-time RT-PCR reactions were run on ABI PRISM® 7900HT Sequence Detection System using the following program: 48′C for 30 min, 95′C for 10 min, 40 cycles of 95′C for 15 sec, 60′C for 1 min. The ΔCT values (CT5B-CTGAPDH) were plotted against the concentration of test compound and fitted to the sigmoid dose-response model using Graph Pad PRISM® software. EC50 was defined as the concentration of inhibitor necessary to achieve ΔCT=1 over the projected baseline; EC90 the concentration necessary to achieve ΔCT=3.2 over the baseline. Alternatively, to quantitate the absolute amount of replicon RNA, a standard curve was established by including serially diluted T7 transcripts of replicon RNA in the Taqman assay. All Taqman reagents were from PE Applied Biosystems. Such an assay procedure was described in detail in e.g. Malcolm et al., Antimicrobial Agents and Chemotherapy 50: 1013-1020 (2006).
HCV Replicon assay data for compounds of the invention that were tested were obtained using the above method.

[1] abbreviates: HCV Replicon assay, EC90 range, Table VI, read-out: EC90.
Where [2] appears, read: 72 h, Table V, class codes, replicon cells, day 3, real time PCR, EC90 = concentration for ΔCT=3.2 over baseline, read-out: EC90 (uM) range.
Where [3] appears, read: 72 h, Table IV, replicon cells, day 3, real time PCR, EC90 = concentration for ΔCT=3.2 over baseline, read-out: EC90.

From patent US9433621B2, “Substituted pyridine and pyrimidine derivatives and their use in treating viral infections” (Merck Sharp & Dohme Corp., priority 2010, dated 2016) come the findings set out here.

Read-outs that look alike come from different tables or passages of the source.

Take `Cc1nc(NCC(F)(F)C(F)(F)F)nc(N[C@@H]2C[C@H](C(C)(C)O)[C@@H](O)[C@H]2O)c1-c1nc2c(N)nccc2s1` [Example 5035]: the EC90 under setting [1] was < 0.5 µM.
For `Cc1nc(NCC(F)(F)C(F)(F)F)nc(N[C@H]2CC[C@@H](CO)C2)c1-c1nc2c(C)nccc2s1` [Example 5168], under setting [1], the EC90 was < 0.5 µM.
Still for that read-out and setting: in the case of `Cc1nc(NCC2(O)CCOC2)nc(N[C@@H]2C[C@H](C3(O)CCCC3)[C@@H](O)[C@H]2O)c1-c1nc2c(C)nccc2s1` (stereo partly drawn) [Example 5115] it was < 0.5 µM.
Same read-out and setting: in the case of `Cc1nc(N[C@H](C)c2c(F)c(F)c(C)c(F)c2F)nc(N[C@@H]2C[C@H](CS(=O)(=O)c3ccc(F)cc3)[C@@H](O)[C@H]2O)c1-c1nc2c(C3CC3)nccc2s1` [Example 5203] it was 0.5 to 5 µM; in that of `CO[C@@H]1[C@H](OC)[C@@H](C(C)(C)O)C[C@H]1Nc1nc(N)nc(C)c1-c1nc2c(C)nccc2s1` [Example 5268], < 0.5 µM; in that of `Cc1nc(NCc2c(F)cc(F)cc2F)nc(N[C@@H]2C[C@H](C(C)(C)S(C)(=O)=O)[C@@H](O)[C@H]2O)c1-c1nc2c(C)nccc2s1` [Example 5063], < 0.5 µM.
The same measure, in the same setting: next, `Cc1nc(NCCS(=O)(=O)NC(C)(C)C)nc(N[C@@H]2C[C@H](C(C)(C)O)[C@@H](O)[C@H]2O)c1-c1nc2c(C)nccc2s1` [Example 5289]: < 0.5 µM; `CSCC[C@@H](CO)Nc1nc(C)c(-c2nc3c(C)nccc3s2)c(N[C@@H]2C[C@H](C(C)(C)O)[C@@H](O)[C@H]2O)n1` [Example 5251]: < 0.5 µM; `Cc1nc(NCCC(C)(C)C)nc(N[C@@H]2C[C@H](C(C)(C)O)[C@@H](O)[C@H]2O)c1-c1nc2c(C)nccc2s1` [Example 5262]: < 0.5 µM.
`Cc1ccc([C@@H](C)Nc2nc(C)c(-c3nc4cnc(C)cc4s3)c(N[C@@H]3C[C@H](CO)[C@@H](O)[C@H]3O)n2)cc1` [Example 4913]: the EC90 under setting [2] is < 0.5 µM.
Turning to `CNS(=O)(=O)C[C@H]1C[C@@H](Nc2nc(NCC3CC3)nc(C)c2-c2nc3c(C)nccc3s2)[C@H](O)[C@@H]1O` [Example 5025], under setting [1], the 90% effect concentration (EC90) is < 0.5 µM.
On the same count and under the same terms, next, `CCS(=O)(=O)C(C)(C)[C@H]1C[C@@H](Nc2nc(NC3CCC3)nc(C)c2-c2nc3c(C)nccc3s2)[C@H](O)[C@@H]1O` [Example 5058]: < 0.5 µM.
With `Cc1nc(NCC2(O)CCCC2)nc(NC2(CO)CCCC2)c1-c1nc2c(C)nccc2s1` [Example 5133], under setting [1], the EC90 is < 0.5 µM.
On to `Cc1nc(NCC2CC3(CC3)C2)nc(N[C@@H]2C[C@H](CO)[C@@H](O)[C@H]2O)c1-c1nc2c(C3CC3)nccc2s1` [Example 5301], for which the EC90 under setting [1] was < 0.5 µM.
Take `Cc1nc(NC2CCC2)nc(N[C@@H]2C[C@H](C(C)(C)S(C)(=O)=O)[C@@H](O)[C@H]2O)c1-c1nc2c(C3CC3)nccc2s1` [Example 5064]: under setting [1], the EC90 is < 0.5 µM.
Consider `Cc1nc(NCC(C)C)nc(N[C@@H]2C[C@H](C(F)F)[C@@H](O)[C@H]2O)c1-c1nc2c(C3CC3)nccc2s1` [Example 5180], for which, under setting [1], the EC90 is < 0.5 µM.
The same measure, in the same setting: next, `COC(C)(C)[C@H]1C[C@@H](Nc2nc(NCc3c(F)cc(F)cc3F)nc(C)c2-c2nc3c(C)nccc3s2)[C@H](O)[C@@H]1O` [Example 5277]: < 0.5 µM; `Cc1nc(NCC2(O)CCCC2)nc(N[C@@H]2C[C@H](CS(=O)(=O)c3cc(F)cc(F)c3)[C@@H](O)[C@H]2O)c1-c1nc2c(C)nccc2s1` [Example 5119]: < 0.5 µM.
With `COc1ccc(S(=O)(=O)C[C@H]2C[C@@H](Nc3nc(NC4CC4)nc(C)c3-c3nc4c(C)nccc4s3)[C@H](O)[C@@H]2O)cc1F` [Example 5005], the EC90 under setting [1] is < 0.5 µM.
As for `COC[C@@H](C)Nc1nc(C)c(-c2nc3c(C)nccc3s2)c(N[C@@H]2C[C@H](C(C)C)[C@@H](O)[C@H]2O)n1` [Example 5283], the 90% effect concentration (EC90) under setting [1] is < 0.5 µM.
As for `Cc1nc(NCC2CC(F)(F)C2)nc(N[C@@H]2C[C@H](C(F)F)[C@@H](O)[C@H]2O)c1-c1nc2c(C3CC3)nccc2s1` [Example 5182], the EC90 under setting [1] is < 0.5 µM.
As for `Cc1nc(N[C@@H]2CCCC[C@H]2O)nc(N[C@@H]2C[C@H](CO)[C@@H](O)[C@H]2O)c1-c1nc2c(C)nccc2s1` [Example 5148], the EC90 under setting [1] is < 0.5 µM.
Same read-out and setting: next, `Cc1nc(NCC2CC2)nc(N[C@@H]2C[C@H](C(C)C)[C@@H](O)[C@H]2O)c1-c1nc2c(C)nccc2s1` [Example 5284]: < 0.5 µM; `Cc1nc(N[C@H](C)C2CCC2)nc(N[C@@H]2C[C@H](C(F)F)[C@@H](O)[C@H]2O)c1-c1nc2c(C3CC3)nccc2s1` [Example 5186]: < 0.5 µM.
For `Cc1nc(NC[C@H]2C[C@H](c3ccccc3)C2)nc(N[C@@H]2C[C@H](CO)[C@@H](O)[C@H]2O)c1-c1nc2cnccc2s1` [Example 4513], the EC90 under setting [3] is 0.016 µM.
Consider `Cc1nc(N[C@H](C)COC(C)C)nc(N[C@@H]2C[C@H](C(C)(C)O)[C@@H](O)[C@H]2O)c1-c1nc2c(C)nccc2s1` [Example 5256], for which, under setting [1], the EC90 is < 0.5 µM.
The same measure, in the same setting: in the case of `Cc1nc(NCc2c(F)cccc2F)nc(N[C@@H]2C[C@H](NC(=O)NCc3ccccc3F)[C@@H](O)[C@H]2O)c1-c1nc2c(C3CC3)nccc2s1` [Example 5082] it was 0.5 to 5 µM.
For `COCCNc1nc(C)c(-c2nc3c(C4CC4)nccc3s2)c(N[C@@H]2C[C@H](C(=O)Nc3ccncc3)[C@@H](O)[C@H]2O)n1` [Example 4956], the EC90 under setting [2] is < 0.5 µM.
In the case of `CCC(O)(CC)[C@H]1C[C@@H](Nc2nc(N)nc(C)c2-c2nc3c(C)nccc3s2)[C@H](O)[C@@H]1O` [Example 5273], the EC90 under setting [1] is < 0.5 µM.
On the same count and under the same terms, in the case of `CCc1nccc2sc(-c3c(C)nc(NCC4CC4)nc3N[C@@H]3C[C@H](CS(=O)(=O)c4ccc(F)c(C)c4)[C@@H](O)[C@H]3O)nc12` [Example 5017] it was < 0.5 µM; in that of `CO[C@@H]1CCC[C@@H]1Nc1nc(C)c(-c2nc3c(C4CC4)nccc3s2)c(N[C@@H]2C[C@H](CO)[C@@H](O)[C@H]2O)n1` [Example 5142], < 0.5 µM.
Same read-out and setting: in the case of `COCC(O)(COC)[C@H]1C[C@@H](Nc2nc(NCc3c(F)cc(F)cc3F)nc(C)c2-c2nc3c(C)nccc3s2)[C@H](O)[C@@H]1O` [Example 5247] it was < 0.5 µM; in that of `COCCNc1nc(C)c(-c2nc3c(C)nccc3s2)c(NC2(C)CCC2)n1` [Example 5215], < 0.5 µM.
Consider `Cc1cc2sc(-c3c(C)nc(N[C@H](C)C4CCC4)nc3N[C@@H]3C[C@H](CO)[C@@H](O)[C@H]3O)nc2cn1` [Example 4912], for which the EC90 under setting [2] was < 0.5 µM.
On to `Cc1nc(NCC2(C)CC2)nc(N[C@@H]2C[C@H](C(F)F)[C@@H](O)[C@H]2O)c1-c1nc2c(C3CC3)nccc2s1` [Example 5191], for which the EC90 under setting [1] is < 0.5 µM.
As for `CO[C@H]1C[C@H](CNc2nc(C)c(-c3nc4c(C5CC5)nccc4s3)c(N[C@@H]3C[C@H](CO)[C@@H](O)[C@H]3O)n2)C1` [Example 5296], the concentration for an effect of 90% (EC90) under setting [1] was < 0.5 µM.
Still for that read-out and setting: next, `COc1nc(C)c(-c2nc3c(C4CC4)nccc3s2)c(N[C@@H]2C[C@H](C(C)(F)F)[C@@H](O)[C@H]2O)n1` [Example 5187]: 5 to 25 µM.
Turning to `Cc1nc(NCc2c(F)cccc2F)nc(N[C@@H]2C[C@H](CS(C)(=O)=O)[C@@H](O)[C@H]2O)c1-c1nc2c(C3CC3)nccc2s1` [Example 3538], the EC90 under setting [3] came out at 0.007 µM.
`COC(=O)NC(C)(C)[C@H]1C[C@@H](Nc2nc(NCC(C)(C)C)nc(C)c2-c2nc3c(C)nccc3s2)[C@H](O)[C@@H]1O` [Example 5047]: the EC90 under setting [1] was < 0.5 µM.
